Publication PMC7228089, “Odiparcil, a potential glycosaminoglycans clearance therapy in mucopolysaccharidosis VI—Evidence from in vitro and in vivo models” (PLoS ONE, 2020)

Key:
[1] = tested on: Primary skin fibroblasts from MPS VI patients GM00538 and GM02572; test: Intracellular chondroitin sulphate ([CS-56] immunofluorescence) in MPS VI patient skin fibroblasts; format: cell-based, human; conditions: 72 h
Protocol: Primary skin fibroblasts from MPS VI patients GM00538 and GM02572 were obtained from the NIGMS Human Genetic Cell Repository at the Coriell Institute for Medical Research. Cell culturing was done according to the conditions provided by the Coriell Institute. For evaluation of the effect of odiparcil, cells were seeded in 96 well imaging plates (Falcon Cat N 353219) and two types of treatment were evaluated: i) prophylactic conditions—cells were treated with odiparcil before reaching confluence, 24 hours after plating; and ii) curative conditions—cells were treated with odiparcil after reaching confluence (10 days culturing). Cells were treated by odiparcil added to the culture media. This was done by replacing the initial culture media by media containing 0.1% DMSO with or without odiparcil (at 0.01, 0.03, 0.1, 0.3, 1, 3 and 10 μM). For treatment, the cells were incubated for 72 hours at 37°C, 5% CO2. All experimental conditions were performed in triplicate, i.e., 3 wells/test condition.
After odiparcil treatment as described above, culture media were removed to be used for dimethylmethylene blue (DMMB) assay and the cells were fixed in PFA 4%. […]
For statistical analyses, commercial software (GraphPad Prism 5) was used. EC50 were calculated using the build in function Nonlinear fit for “log (inhibitor) vs. response—Variable slope (four parameters)”. […]

Arsb^- mice = test: Granule accumulation in leukocytes (May-Grunwald-Giemsa blood smears); format: in vivo; conditions: early disease treatment, 6 months, high dose (4.5 g/kg diet)
Protocol: MPS VI model nonsense mutation Arsb^m1J homozygous mice (referred to as Arsb^- throughout the manuscript) and WT littermates were obtained from internal breeding of stock mice derived from The Jackson Laboratory strain No: 005598 (C57BL/6J-Arsb^m1J/GrsrJ). Genotyping and Arsb^m1J mutation identification were performed according to the protocol provided by The Jackson Laboratory. Each study group contained mix of male and female: 6 animals in disease progression studies and between 8 and 12 animals in odiparcil treatment studies.
Housing conditions. The animals were housed in groups of 3–10 (for mice) or 2 (for rats) in polypropylene cages (floor area = 1032 cm^2) under standard conditions: room temperature (22 ± 2°C), hygrometry (55 ± 10%), light/dark cycle (12h/12h), air replacement (15–20 volumes/hour), water and food ad libitum. Mice were allowed to habituate for at least 5 days prior to experimentation. Mice were numbered by marking their tail using indelible markers. […]
Quantification of the accumulation of granules in leukocytes was done after May-Grunwald–Giemsa staining of blood smears and microscopic examination. […] Only blood smears from WT chow diet, Arsb^- chow diet and Arsb^- treated with high dose of odiparcil (4.5 g/kg diet) were analyzed. […]

Question: For `Cc1cc(=O)oc2cc(O[C@@H]3SC[C@@H](O)[C@H](O)[C@H]3O)ccc12` [Odiparcil, 4-methyl-7-(5-thio-β-D-xylopyranosyloxy)-2 H-chromen-2-one], which “Effect on intracellular pool of CS” value ([1]; 10 μM odiparcil) is on record?
Answer: The value was “almost completely eliminated intracellular pool of CS”.

Question: What about the EC50 ([1]; Homo sapiens, Skin fibroblast, growing and confluent cell culture conditions, read-out: EC50 for the reduction of intracellular CS levels) of the same molecule?
Answer: The EC50 was about 1000 nM.

Question: And the “Leukocytes with high granules accumulation” value (Arsb^- mice)?
Answer: The value was “reduced number of leukocytes with high granules accumulation”.
